Experimental data taken from article PMC5989272, “Transfer Hydrogenation and Antiproliferative Activity of Tethered Half-Sandwich Organoruthenium Catalysts” (Organometallics, 2018).

How the values were obtained:
[1] = test system: MRC5 normal human lung fibroblast cells; assay: Cytotoxicity (SRB assay), MRC5 normal fibroblasts; type: cell-based; details: 24 h drug exposure, 72 h recovery, read-out: IC50 MRC 5
Method: (§1) A2780 and A2780Cis human ovarian, A549 human lung, HEPG 2 human hepatocellular, MCF 7 human breast cancer, and MRC 5 human normal fibroblast cell lines were grown in Roswell Park Memorial Institute medium (RPMI-1640) supplemented with 10% of fetal calf serum, 1% of 2 mM glutamine, and 1% penicillin/streptomycin. All cells were grown as adherent monolayers at 310 K with 5% CO2 humidified, and all cells were passaged at ca. 80% confluency.
(§2) The antiproliferative activity and cytotoxicity of complexes 1–4 were determined in five different cancer cell lines and one human normal cell line. In general, about 5000 cells per well were seeded in 96-well plates. The plates were preincubated with drug-free medium at 310 K for 48 h before adding the tested compounds (various concentrations). Stock solutions of complexes 1–4 were prepared in DMSO/cell culture medium, and exact complex concentrations were determined by ICP-OES. […] A further cell recovery for 72 h was allowed in drug-free medium at 310 K. The sulforhodamine B (SRB) assay was used to determine cell viability. IC50 values, as the concentration that causes 50% cell death, were determined as duplicates of triplicates in two independent sets of experiments, and their standard deviations were calculated.

[2] = test system: A549 human lung cancer cells; assay: Antiproliferative activity (SRB assay), A549; type: cell-based; details: 24 h drug exposure, 72 h recovery in drug-free medium
Method: as §1, §2

[3] = test system: HEPG2 human hepatocellular cancer cells; assay: Antiproliferative activity (SRB assay), HEPG2; type: cell-based; details: 24 h drug exposure, 72 h recovery in drug-free medium
Method: as §1, §2

[4] = test system: A2780Cis cisplatin-resistant ovarian cancer cells; assay: Antiproliferative activity (SRB assay), A2780Cis; type: cell-based, human; details: for IC50: 24 h drug exposure, 72 h recovery in drug-free medium; for RI (resistance index): ratio of IC50 A2780Cis to parental A2780
Method: as §1, §2

[5] = test system: MCF7 human breast cancer cells; assay: Antiproliferative activity (SRB assay), MCF7; type: cell-based; details: 24 h drug exposure, 72 h recovery in drug-free medium; read-out: IC50 MCF 7
Method: as §1, §2

[6] = test system: A2780 human ovarian cancer cells; assay: Antiproliferative activity (SRB assay), A2780; type: cell-based; details: 24 h drug exposure, 72 h recovery in drug-free medium
Method: as §1, §2

[7] = test system: double-stranded 50-mer oligonucleotide; assay: Binding to double-stranded 50-mer oligonucleotide (FAAS); details: ri = 0.5, 0.05 M NaClO4, 310 K, 24 h, dark
Method: (§3) After 24 h the reaction was stopped, and samples were exhaustively dialyzed against water. The ruthenium contents in these samples were determined by FAAS, and the concentrations of DNA were determined by absorption spectroscopy.

[8] = test system: double-helical calf thymus DNA (ct-DNA); assay: Binding to calf thymus DNA (FAAS after dialysis); details: ri 0.1 and 0.5, 10 mM NaClO4, 310 K, 24 h
Method: The reaction was terminated after 24 h of incubation, and samples were exhaustively dialyzed against water. The ruthenium content in these samples was determined by flameless atomic absorption spectrometry (FAAS) and the concentration of DNA by absorption spectrophotometry.

[9] = set-up: method as in PMID 16604356; details: cited from earlier work
[10] = test system: single-stranded 50-mer oligonucleotide; assay: Binding to single-stranded 50-mer oligonucleotide (FAAS); details: ri = 0.5, 0.05 M NaClO4, 310 K, 24 h, dark
Method: as §3

[11] = test system: A2780 human ovarian cancer cells; assay: ROS/superoxide induction (flow cytometry); type: cell-based; details: IC50 concentration, 24 h; pyocyanin 30 min
Method: The total level of oxidative stress, including H2O2, peroxy and hydroxyl radical, peroxynitrite, NO, and superoxide production, was monitored using the green channel FL1 and orange channel FL2, respectively.
Positive controls were obtained by exposure of cells to pyocyanin for 30 min. Data were processed using Flowjo software. At all times, samples were kept under dark conditions to avoid light-induced ROS production.

[12] = test system: A2780 human ovarian cancer cells; assay: Cell viability on coincubation with sodium formate (SRB); details: 0.5, 1 and 2 mM sodium formate
Method: Experiments included three sets of controls: the first, negative controls, consisted of untreated cells (only vehicle exposure), a second set was exposed to three concentrations of sodium formate (0.5, 1, and 2 mM), and a third set was exposed to cisplatin as positive controls. […] Following 72 h of recovery time in drug-free medium, cell survival was evaluated using the Sulforhodamine B colorimetric assay.
Cell viability assays of complexes 1–4 were carried out with A2780 ovarian cancer cells with sodium formate. […] Drug stock solutions (ca. 100 μM) were prepared as described for in vitro growth inhibition assays and then further diluted with media until working concentrations were achieved. Separately, a stock solution of sodium formate was prepared in saline. The complex and formate solutions were added to each well independently within 5 min of each other. All other experimental conditions were kept unchanged (drug exposure, cell recovery time, and end point assay used). The standard deviations were calculated.

[13] = NAD+ to NADH, formate hydride donor; Ru/NAD+/formate 1/4/25, DMSO-d6/D2O, pH* 7.2, 310 K
Method: (§4) Catalytic transfer hydrogenation reactions of complexes 1–4 and sodium formate as hydride donor for conversion of nicotinamide adenine dinucleotide (NAD^+) to NADH were studied in aqueous media by UV–visible spectroscopy by following the absorbance at 340 nm for NADH and by ^1H NMR spectroscopy (20% DMSO-d6 in D2O) by monitoring peaks corresponding to 1,4-NADH.
Complexes 1–4 were dissolved in DMSO-d6/D2O (3/2 v/v; 1.4 mM) in a glass vial. Aliquots (200 μL) of solutions of sodium formate (35 mM) and NAD^+ (5.6 mM) in D2O were added, and the pH* was adjusted to 7.2 ± 0.1, for a final volume of 0.64 mL (Ru complex 0.44 mM, NAD^+ 1.75 mM, NaHCO2 10.94 mM; molar ratio 1/4/25). The solution was transferred to a 5 mm NMR tube, and a ^1H NMR spectrum was recorded at 310 K every 162 s until the completion of the reaction. Molar ratios of NAD^+ and NADH were determined by integrating the peaks corresponding to resonances for NAD^+ (9.33 ppm) and 1,4-NADH (6.96 ppm). The turnover number (TON) for the reaction was calculated [drawing 1] where In is the integral of the signal at n ppm and [NAD^+] is the concentration of NAD^+ at the start of the reaction.

[14] = NAD+ to NADH, formate hydride donor; Ru/NAD+/formate 1/6/1200, pH 7.2, 310 K, 340 nm
Method: as §4
Complexes 1–4 were dissolved in DMSO/H2O (1/9 v/v) (84 μM) in a glass vial. Solutions of sodium formate (102 mM) and NAD^+ in H2O (510 μM) were also prepared and then mixed at 310 K. In a typical experiment, an aliquot of 330 μL from each solution was placed in a 1 mL cuvette and the pH adjusted to 7.2 before the sample was introduced into the UV–vis instrument, giving a total volume of 1 mL (final concentrations were Ru complex 28 μM, NAD^+ 170 μM, NaHCO2 34 mM, molar ratio 1/6/1200). UV spectra were recorded every 5 min until completion of the reaction. The spectrum was monitored for an increase in the band at 340 nm, which corresponds to the absorption of NADH.

[15] = test system: A2780 human ovarian cancer cells; details: 24 h exposure at equipotent IC50 concentration, no recovery
Method: (§5) ICP-MS and ICP-OES analyses were carried out on Agilent Technologies 7500 series and PerkinElmer Optima 5300 DV series instruments, respectively. The double-deionized (DDW) water used for both analyses was from a Millipore Milli-Q water purification system and a USF Elga UHQ water deionizer. The Ruthenium Specpure plasma standard (ruthenium chloride, 1004 ± 5 μg/mL in 10% v/v hydrochloric acid) was diluted with 3.6% v/v HNO3, and calibrants were prepared freshly at concentrations of 0.1–500 ppb for ICP-MS and 50–700 ppb for ICP-OES. In particular, calibration standards for ICP-OES analysis were adjusted with standard sodium chloride (TraceSELECT) solution to match the sample salinity. The instrument was set to detect ^101Ru with typical detection using no-gas mode for ICP-MS analysis.
(§6) Cellular Ru accumulations for complexes 2 and 4 were determined on A2780 ovarian and A2780 cisplatin-resistant ovarian cancer cells. Approximately 2 × 10^6 cells were seeded in a six-well plate and preincubated in drug-free medium at 310 K for 24 h, and stock solutions of both complexes were prepared in a mixture of DMSO/cell culture medium and their accurate Ru concentrations were determined by ICP-OES. […] After this time, cells were treated with trypsin and counted and cell pellets were collected. […] Statistical significances of variations were determined using Welch’s t-tests.

A2780Cis cells = details: 24 h exposure at equipotent IC50 concentration, no recovery
Method: as §5, §6

**Q.** Which results are given for [NH2][Pt]([NH2])([Cl])[Cl] [CDDP, cisplatin, reference compound]?
**A.** IC50 [1]: 12.8 ± 0.3 µM; IC50 [2]: 3.1 ± 0.1 µM; IC50 [3]: 5.7 ± 0.9 µM; IC50 [4]: 13.4 ± 0.3 µM; selectivity index between MRC5 normal cells and A2780Cis cancer cells ([4]; MRC5 vs A2780Cis): 0.95; RI (resistance index) [4]: 11; IC50 [5]: 7.3 ± 0.2 µM; IC50 [6]: 1.2 ± 0.02 µM

**Q.** Which results are given for Cc1ccc(C(C)C)cc1.Cc1ccc(S(=O)(=O)[N](CCN)[Ru][Cl])cc1 [JS2, [(η^6-p-cym)Ru(TsEn)Cl]]?
**A.** Ru bound to double-stranded oligonucleotide [7]: No Ru associated; ruthenium bound to ct-DNA [8]: No detectable amount of ruthenium; TOF for TH reduction of NAD+ [9]: 2.88 h^–1; Ru bound to single-stranded oligonucleotide [10]: No Ru associated

**Q.** With Cn1c2cccc(=O)c-2nc2ccccc21 [Pyocyanin, pyocyanin] as the molecule, how does the “Cell Populations FL-1+/FL-2+” value [11] read?
**A.** Its value is 96.1 ± 0.8%.

**Q.** What about the “Cell Populations FL-1+/FL-2- (total oxidative stress)” value [11] of the same molecule?
**A.** The value was 1.5 ± 0.6%.

**Q.** What about the “Cell Populations FL-1-/FL-2+ (superoxide)” value [11] of the same molecule?
**A.** The value was 2.5 ± 0.9%.

**Q.** What about the “Cell Populations FL-1-/FL-2-” value [11] of the same molecule?
**A.** The value was 0.45 ± 0.08%.

**Q.** With F[P-](F)(F)(F)(F)F.NCCN.[Cl][Ru+].c1ccc(-c2ccccc2)cc1 [RM175, [(η^6-biph)Ru(en)Cl]PF6] as the molecule, how does the “TOF for TH reduction of NAD+” value [9] read?
**A.** The value was 0.18 h^–1.

**Q.** For O=C[O-].[Na+] [sodium formate], which “toxicity of formate alone” value [12] is on record?
**A.** Its value is “not toxic”.

**Q.** Which IC50 [1] does the source give for “[Ru(η^6-Ph(CH2)3-ethylenediamine-N-Ms)Cl] [Complex 1]” here?
**A.** The IC50 was 31 ± 1 µM.

**Q.** And the IC50 [2]?
**A.** The IC50 was 33 ± 1 µM.

**Q.** What about the IC50 [3] of the same molecule?
**A.** The IC50 was 27.8 ± 0.1 µM.

**Q.** And the “TOF (NMR)” value [13]?
**A.** Its value is 3.79 ± 0.05 h^–1.

**Q.** And the IC50 [4]?
**A.** The IC50 was > 50 µM.

**Q.** What about the “RI (resistance index)” value [4] of the same molecule?
**A.** The value was >2.

**Q.** What about the IC50 [5] of the same molecule?
**A.** Its IC50 is 28.9 ± 0.9 µM.

**Q.** And the “TOF (UV–vis)” value [14]?
**A.** The value was 5.8 ± 0.2 h^–1.

**Q.** And the IC50 [6]?
**A.** Its IC50 is 23 ± 1 µM.

**Q.** Which results are given for “[Ru(η^6-Ph(CH2)3-ethylenediamine-N-Nb)Cl] [Complex 4]”?
**A.** cellular Ru content [15]: 150 ± 38 ng per million cells; cellular Ru content (A2780Cis cells): 241 ± 10 ng per million cells; IC50 [1]: 26 ± 1 µM; IC50 [2]: 30 ± 1 µM; IC50 [3]: 23 ± 4 µM; TOF (NMR) [13]: 8.5 ± 0.2 h^–1; IC50 [4]: > 50 µM; RI (resistance index) [4]: >3; IC50 [5]: 9.9 ± 0.5 µM; TOF (UV–vis) [14]: 9.9 ± 0.2 h^–1; IC50 [6]: 16 ± 0.3 µM

**Q.** For “[Ru(η^6-Ph(CH2)3-ethylenediamine-N-Tf)Cl] [Complex 3]”, which IC50 [1] is on record?
**A.** The IC50 was 28 ± 3 µM.

**Q.** What about the IC50 [2] of the same molecule?
**A.** The IC50 was 31 ± 2 µM.

**Q.** What about the IC50 [3] of the same molecule?
**A.** Its IC50 is > 50 µM.

**Q.** And the “TOF (NMR)” value [13]?
**A.** The value was 8.9 ± 0.3 h^–1.

**Q.** And the IC50 [4]?
**A.** The IC50 was > 50 µM.

**Q.** What about the IC50 [5] of the same molecule?
**A.** The IC50 was 24 ± 3 µM.

**Q.** What about the “TOF (UV–vis)” value [14] of the same molecule?
**A.** The value was 8.69 ± 0.07 h^–1.

**Q.** What about the IC50 [6] of the same molecule?
**A.** The IC50 was > 50 µM.
